This is an account of results in ChEMBL document CHEMBL4814020, “Nonbisphosphonate inhibitors of Plasmodium falciparum FPPS/GGPPS” (Bioorg Med Chem Lett, 2021).

Data set [1] deals with T1, Geranylgeranyl pyrophosphate synthase (Homo sapiens, UniProt O95749).
T1 sequence (O95749 whole entry): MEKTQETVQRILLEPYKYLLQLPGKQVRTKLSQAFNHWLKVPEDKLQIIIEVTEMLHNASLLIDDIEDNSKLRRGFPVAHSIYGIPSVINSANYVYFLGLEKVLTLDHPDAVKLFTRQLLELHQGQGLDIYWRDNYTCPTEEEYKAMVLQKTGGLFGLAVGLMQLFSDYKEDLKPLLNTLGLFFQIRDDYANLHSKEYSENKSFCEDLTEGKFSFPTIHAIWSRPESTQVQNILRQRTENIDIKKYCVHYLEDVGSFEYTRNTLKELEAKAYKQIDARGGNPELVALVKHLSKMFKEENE
Description: Inhibition of recombinant human N-terminal His6-tagged GGPPS assessed as reduction in pyrophosphate release using GPP as substrate upto 200 uM incubated for 30 mins followed by substrate addition by PPiLight detection reagent based luminescence assay. Particulars: 0.5 h; call rule not given here.

Data set [2] can be described thus: Inhibition of recombinant Plasmodium falciparum N-terminal His6-tagged GGPPS expressed in Escherichia coli expression system assessed as reduction in pyrophosphate release using GPP as substrate incubated for 30 mins followed by substrate addition by PPiLight detection reagent based luminescence assay.
Data set [3] is described as follows: Lipophilicity, logD of the compound in octanol-buffer at pH 7.4 measured after 18 hrs under shaking condition by reverse phase HPLC-MS analysis. It is filed as physicochemical.
The nature of data set [4]: AUC in iv dosed C57BL/6J mouse. Particulars: in vivo. It is filed as ADME, organism-based.
Data set [5] is described as follows: Metabolic stability in human liver microsomes assessed as intrinsic clearance. It is filed as ADME, Microsome. Particulars: read-out: CLH.
Data set [6] can be described thus: Fraction unbound in iv dosed C57BL/6J mouse. It is filed as ADME, organism-based. The settings on record: in vivo.
Data set [7] concerns the target T2, Farnesyl pyrophosphate synthase (Homo sapiens, UniProt P14324).
T2 sequence (P14324 whole entry): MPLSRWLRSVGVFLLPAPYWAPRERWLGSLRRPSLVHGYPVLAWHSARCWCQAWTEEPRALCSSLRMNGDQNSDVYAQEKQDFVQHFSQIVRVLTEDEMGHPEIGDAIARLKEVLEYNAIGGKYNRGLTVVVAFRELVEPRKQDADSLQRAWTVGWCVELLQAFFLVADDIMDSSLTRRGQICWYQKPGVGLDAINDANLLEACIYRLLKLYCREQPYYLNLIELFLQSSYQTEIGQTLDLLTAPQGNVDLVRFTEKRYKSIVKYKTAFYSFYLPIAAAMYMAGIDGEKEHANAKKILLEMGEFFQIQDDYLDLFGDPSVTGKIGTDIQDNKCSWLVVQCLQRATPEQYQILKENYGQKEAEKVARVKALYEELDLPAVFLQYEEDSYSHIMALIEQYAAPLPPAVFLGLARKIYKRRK
Description: Inhibition of recombinant human N-terminal His6-tagged FPPS assessed as reduction in pyrophosphate release using GPP as substrate upto 200 uM incubated for 30 mins followed by substrate addition by PPiLight detection reagent based luminescence assay. Particulars: 0.5 h.

For data set [8], the system named is MDR1. Description: Apparent permeability in pig LLC-PK1 cells expressing MDR1 measured upto 360 mins. It is filed as ADME, cell-based, Sus scrofa.
Data set [9] relates to MDR1. Description: Efflux ratio of apparent permeability in pig LLC-PK1 cells expressing MDR1 measured upto 360 mins. It is filed as ADME, cell-based, Sus scrofa.
Data set [10] is described as follows: MRT in iv dosed C57BL/6J mouse. It is filed as ADME, organism-based. Particulars: in vivo.
Data set [11] is described as follows: Metabolic stability in mouse liver microsomes assessed as intrinsic clearance. It is filed as ADME, Microsome. The settings on record: read-out: CLH.
Data set [12] can be described thus: Clearance in iv dosed C57BL/6J mouse. It is filed as ADME, organism-based. The settings on record: in vivo.
Data set [13] in a line: Kinetic solubility of compound. It is filed as physicochemical. The settings on record: read-out: Kinetic_solubility.
A short description of data set [14]: Volume of distribution in iv dosed C57BL/6J mouse. It is filed as ADME, organism-based. The settings on record: in vivo.
In a further data set the test system is Plasmodium falciparum. Description: Antimalarial activity against Plasmodium falciparum infected in human RBC assessed as reduction in parasite growth measured after 72 hrs by flow cytometry analysis. It is filed as functional, organism-based. Particulars: Erythrocyte.

With `O=C(CCCN1CCCOCC1)Nc1cnc(-c2ccc(F)cc2F)s1`, the “inhibition (INH)” value in [1] and in [7] was “Not Active” throughout. The IC50 was 1.94 µM in data set [2] and 0.074 µM with Plasmodium falciparum. In data set [3], this compound showed a pH-dependent lipophilicity (logD) at 18 h of 2.41. In [4], this compound displayed an AUC of 65.8 ng·h/mL. In addition, the microsomal CLint in data set [5] was under 1 µL/min/mg; in data set [11] it was 22 µL/min/mg. The compound also registered a fraction unbound in [6] of 0.09. Further, the apparent permeability (Papp) at 6 h in the data set with MDR1 [8] stood at 9.2 ×10⁻⁶ cm/s. Also, the efflux ratio at 6 h in the data set with MDR1 [9] stood at 1.5. In data set [10], this compound had an MRT of 2.63 h. Moreover, the clearance in data set [12] is 25.3 mL/min/kg. Moreover, the solubility kinetic in data set [13] is over 100 µg/mL. In addition, the Vd in data set [14] turned out to be 4 L/kg.
